In patent publication US7951778B2, “Use of compounds having the biological activity of vasoactive intestinal peptide for the treatment of sarcoidosis” (mondoBIOTECH AG, priority 2002, dated 2011):

What was measured:
Format in all cases: in vivo, human
[1] = tested on: patient with severe sarcoidosis stadium 3 and secondary pulmonary hypertension; assay: Hemodynamic parameters by right heart catheterization before and after 12 weeks VIP inhalation; settings: VIP inhalation 200 μg per day
Experimental: (§1) A patient with severe sarcoidosis stadium 3 and secondary pulmonary hypertension was under therapy with cortocosteroids, furosemid, oxygen and an anticoagulant. Right heart catheterization (Swan-Ganz, Baxter, Irvine, Calif., USA) was performed to measure mean pulmonary artery pressure (mPAP), cardiac output (CO), mean arterial pressure (MAP), pulmonary capillary wedge pressure (PCWP) mixed venous oxygen saturation (SvO2%) and systemic arterial oxygen pressure (PaO2%) for and after treatment with VIP inhalation (200 μg in 12 ml 0.9% NaCl per day, 4×3 ml per inhalation) for 12 weeks. FEV1 (forced expiratory volume in one second), FVC (forced vital capacity), TLC (total lung capacity), AaDO2 (arterial-alveolar oxygen difference) of sarcoidosis patient is measured according to standard methods for and after treatment with VIP (200 μg in 12 ml 0.9% NaCl per day) for 12 weeks. VIP was inhaled for 12 weeks via the MicroDrop Master Jet (MPV, Truma, Germany) using a particle size of 3 μm to provide alveolar deposition of the substance.
(§2) Hemodynamic and lung function parameters of the sarcoidosis patient before and after the treatment with VIP for 12 weeks are summary in Table 2.

[2] = tested on: patient with severe sarcoidosis stadium 3 and secondary pulmonary hypertension; assay: Lung function parameters before and after 12 weeks VIP inhalation; settings: after treatment, VIP inhalation 200 μg per day
Experimental: as §1, §2

[3] = tested on: patient with severe sarcoidosis stadium 3 and secondary pulmonary hypertension; assay: 6-minutes walk test
Experimental: as §1
In the 6-minutes walk test, the patient improved from 210 meters before treatment to 350 meters after the treatment

His-Ser-Asp-Ala-Val-Phe-Thr-Asp-Asn-Tyr-Thr-Arg-Leu-Arg-Lys-Gln-Met-Ala-Val-Lys-Lys-Tyr-Leu-Asn-Ser-Ile-Leu-Asn [VIP]
CI ([1]; after treatment, before treatment 2.1): 2.7
CO (cardiac output) ([1]; after treatment, before treatment 3.9): 4.9
PaO2 (systemic arterial oxygen pressure) ([1]; after treatment, before treatment 47.0): 54.0
SvO2 (mixed venous oxygen saturation) ([1]; after treatment, before treatment 49.4): 53.0
PaCO2 ([1]; after treatment, before treatment 55.0): 52.0
SaO2 ([1]; after treatment, before treatment 83.2): 88.0
mAP (mean arterial pressure) ([1]; after treatment, before treatment 84.0): 98.0
PCWP (pulmonary capillary wedge pressure) ([1]; first PCWP line of Table 2, after treatment, before treatment 10): 10
PVR ([1]; first PVR line of Table 2, after treatment, before treatment 923): 359
mPAP (mean pulmonary artery pressure) ([1]; first mPAP line of Table 2, after treatment, before treatment 55): 32
PCWP (pulmonary capillary wedge pressure) ([1]; second PCWP line of Table 2, after treatment, before treatment 6.0): 7.0
PVR ([1]; second PVR line of Table 2, after treatment, before treatment 985.0): 313.0
mPAP (mean pulmonary artery pressure) ([1]; second mPAP line of Table 2, after treatment, before treatment 54.0): 26.0
FEV1 (forced expiratory volume in one second) ([2]; before treatment 1.2): 1.1 L
FVC (forced vital capacity) ([2]; before treatment 1.4): 1.3
TLC (total lung capacity) ([2]; before treatment 2.3): 2.7
AaDO2 (arterial-alveolar oxygen difference) ([2]; before treatment 39.0): 37.0
6-minutes walk test distance ([3]; after the treatment with VIP for 12 weeks, 210 meters before treatment): 350 meters
6-Min.WT ([3]; after treatment, VIP inhalation 200 μg per day, 12 weeks, before treatment 210): 350
